According to PMC12000319, “Proton conductance by human uncoupling protein 1 is inhibited by purine and pyrimidine nucleotides” (The EMBO Journal, 2025):
Values joined by “and” are separate entries in the source; they are usually repeats but may differ in a detail not shown here. Identical values can stand only once. Like-named read-outs stand apart in the source and are kept apart here. One block for each molecule: values may come before it.

Experiments:
UCP1 [1] = target: T1, UCP1 (Homo sapiens, UniProt P25874); experiment: Isothermal titration calorimetry of nucleotide binding; parameters: isotherm data point (enthalpy change per injection): unit not given here; settings: for isotherm data point (enthalpy change per injection): representative isotherm;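 on all read-outs here: purified human UCP1 in cacodylate buffer with lauryl maltose neopentyl glycol and cardiolipin, titrated with nucleotides, isotherms fitted by one-site model yielding ΔH, Kd and stoichiometry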
T1 construct: His8 (N, cleaved yes); Factor Xa protease cleavage site (N, cleaved yes); made in house; host or cells: Saccharomyces cerevisiae strain W303.1B
T1 sequence (P25874 1-307): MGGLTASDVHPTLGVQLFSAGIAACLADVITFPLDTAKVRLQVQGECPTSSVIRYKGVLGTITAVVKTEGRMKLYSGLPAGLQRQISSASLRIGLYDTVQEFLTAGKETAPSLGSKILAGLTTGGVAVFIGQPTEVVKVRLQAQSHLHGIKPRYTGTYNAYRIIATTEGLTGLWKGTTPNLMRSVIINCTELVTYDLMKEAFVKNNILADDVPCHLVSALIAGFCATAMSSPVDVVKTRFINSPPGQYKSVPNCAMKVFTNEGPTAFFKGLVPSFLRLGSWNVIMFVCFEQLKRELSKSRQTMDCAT

UCP1 [2] = target: T1, UCP1; experiment: Differential scanning fluorimetry (nanoDSF) thermal stability shift assay; format: binding; settings: for ΔTm at 1000 µM: read-out: thermal shift (ΔTm)
[3] = target: T2, human uncoupling protein 1 (human, UniProt P25874); experiment: cryo-EM structure; UCP1, PMb65 and PMb71 mixed stoichiometrically, overnight at 4 °C; complex separated by SEC (20 mM MES pH 6.0, 150 mM NaCl, 0.02% lauryl maltose neopentyl glycol, 0.02 mg/mL tetraoleoyl cardiolipin, 1 mM TCEP); 2 mM UTP and 2 mM D-maltose added; 3.03 Å; settings: both partners purified
T2 construct: human uncoupling protein 1 (UCP1, SLC25A7), Uniprot P25874; Detergent-solubilised, with tetraoleoyl cardiolipin; also called UCP1; SLC25A7; source: Saccharomyces cerevisiae W303.1B, purified from mitochondria (Ni Sepharose, on-column Factor Xa cleavage); not shown: His8, N-terminal, cleaved

[4] = ITC, pH 6.0, 20 °C, mean ± standard deviation of three biological repeats (Fig. 2A-E)
[5] = ITC, single biological repeats (source data Fig. 2F)

binding affinity to UCP1 (in words) (UCP1 [1]; ITC): intermediary affinities
Kd (UCP1 [1]; [4]): 3.77 ± 0.12 µM
Kd (UCP1 [1]; [5]): 3.68 µM and 3.9 µM and 3.73 µM
isotherm data point (enthalpy change per injection) (UCP1 [1]; Molar ratio (Nucleotide/UCP) 0.120417, pH 6.0, 20 °C): -20.3045
isotherm data point (enthalpy change per injection) (UCP1 [1]; Molar ratio (Nucleotide/UCP) 0.181226, pH 6.0, 20 °C): -19.4276
isotherm data point (enthalpy change per injection) (UCP1 [1]; Molar ratio (Nucleotide/UCP) 0.242439, pH 6.0, 20 °C): -18.5029
isotherm data point (enthalpy change per injection) (UCP1 [1]; Molar ratio (Nucleotide/UCP) 0.304059, pH 6.0, 20 °C): -18.707
isotherm data point (enthalpy change per injection) (UCP1 [1]; Molar ratio (Nucleotide/UCP) 0.366087, pH 6.0, 20 °C): -18.3445
isotherm data point (enthalpy change per injection) (UCP1 [1]; Molar ratio (Nucleotide/UCP) 0.428528, pH 6.0, 20 °C): -17.3071
isotherm data point (enthalpy change per injection) (UCP1 [1]; Molar ratio (Nucleotide/UCP) 0.491383, pH 6.0, 20 °C): -16.412
isotherm data point (enthalpy change per injection) (UCP1 [1]; Molar ratio (Nucleotide/UCP) 0.554656, pH 6.0, 20 °C): -17.0687
isotherm data point (enthalpy change per injection) (UCP1 [1]; Molar ratio (Nucleotide/UCP) 0.618348, pH 6.0, 20 °C): -15.1625
isotherm data point (enthalpy change per injection) (UCP1 [1]; Molar ratio (Nucleotide/UCP) 0.682464, pH 6.0, 20 °C): -14.4377
isotherm data point (enthalpy change per injection) (UCP1 [1]; Molar ratio (Nucleotide/UCP) 0.747006, pH 6.0, 20 °C): -12.3158
isotherm data point (enthalpy change per injection) (UCP1 [1]; Molar ratio (Nucleotide/UCP) 0.811976, pH 6.0, 20 °C): -11.9274
isotherm data point (enthalpy change per injection) (UCP1 [1]; Molar ratio (Nucleotide/UCP) 0.877378, pH 6.0, 20 °C): -11.0392
isotherm data point (enthalpy change per injection) (UCP1 [1]; Molar ratio (Nucleotide/UCP) 0.943214, pH 6.0, 20 °C): -8.777
isotherm data point (enthalpy change per injection) (UCP1 [1]; Molar ratio (Nucleotide/UCP) 1.00949, pH 6.0, 20 °C): -7.389
isotherm data point (enthalpy change per injection) (UCP1 [1]; Molar ratio (Nucleotide/UCP) 1.0762, pH 6.0, 20 °C): -6.878
isotherm data point (enthalpy change per injection) (UCP1 [1]; Molar ratio (Nucleotide/UCP) 1.14336, pH 6.0, 20 °C): -5.2039
isotherm data point (enthalpy change per injection) (UCP1 [1]; Molar ratio (Nucleotide/UCP) 1.21096, pH 6.0, 20 °C): -4.2804
isotherm data point (enthalpy change per injection) (UCP1 [1]; Molar ratio (Nucleotide/UCP) 1.27901, pH 6.0, 20 °C): -2.298
isotherm data point (enthalpy change per injection) (UCP1 [1]; Molar ratio (Nucleotide/UCP) 1.34751, pH 6.0, 20 °C): -2.606
isotherm data point (enthalpy change per injection) (UCP1 [1]; Molar ratio (Nucleotide/UCP) 1.41647, pH 6.0, 20 °C): -2.5907
isotherm data point (enthalpy change per injection) (UCP1 [1]; Molar ratio (Nucleotide/UCP) 1.48589, pH 6.0, 20 °C): -0.9936
isotherm data point (enthalpy change per injection) (UCP1 [1]; Molar ratio (Nucleotide/UCP) 1.55577, pH 6.0, 20 °C): -1.473
isotherm data point (enthalpy change per injection) (UCP1 [1]; Molar ratio (Nucleotide/UCP) 1.62611, pH 6.0, 20 °C): -0.9907
isotherm data point (enthalpy change per injection) (UCP1 [1]; Molar ratio (Nucleotide/UCP) 1.69692, pH 6.0, 20 °C): -0.3592
isotherm data point (enthalpy change per injection) (UCP1 [1]; Molar ratio (Nucleotide/UCP) 1.76819, pH 6.0, 20 °C): -0.2978
isotherm data point (enthalpy change per injection) (UCP1 [1]; Molar ratio (Nucleotide/UCP) 1.83995, pH 6.0, 20 °C): 0.5154
isotherm data point (enthalpy change per injection) (UCP1 [1]; Molar ratio (Nucleotide/UCP) 1.91217, pH 6.0, 20 °C): 0.06373
isotherm data point (enthalpy change per injection) (UCP1 [1]; Molar ratio (Nucleotide/UCP) 1.98488, pH 6.0, 20 °C): 0.2135
temperature shift (ΔTm) (UCP1 [2]; 1 mM nucleotide, pH 6.0, detergent-solubilised UCP1, mean of three biological repeats): 16.2 °C
ΔTm at 1000 µM (UCP1 [2]; pH 6, 1 mM nucleotide, pH 6.0, single repeats (source data Fig. 1D)): 16 °C
ΔTm at 1000 µM (UCP1 [2]; pH 6.5, 1 mM nucleotide, pH 6.5, single repeats (source data Fig. 1D)): 12 °C
ΔTm at 1000 µM (UCP1 [2]; pH 7, 1 mM nucleotide, pH 7.0, single repeats (source data Fig. 1D)): 7.8 °C
ΔTm at 1000 µM (UCP1 [2]; pH 7.5, 1 mM nucleotide, pH 7.5, single repeats (source data Fig. 1D)): 3.6 °C
Molecule: Nc1nc2c(ncn2[C@@H]2O[C@H](COP(=O)(O)OP(=O)(O)OP(=O)(O)O)[C@@H](O)[C@H]2O)c(=O)[nH]1 [GTP, guanosine triphosphate]

Kd (UCP1 [1]; [4]): 2.86 ± 0.49 µM
Kd (UCP1 [1]; [5]): 3.37 µM and 2.82 µM and 2.4 µM
Molecule: O=c1ccn([C@@H]2O[C@H](COP(=O)(O)OP(=O)(O)OP(=O)(O)O)[C@@H](O)[C@H]2O)c(=O)[nH]1 [UTP, uridine triphosphate]

binding result [3]: binds
B1: Pro-macrobody PMb65 (VHH)
VHH: QVQLVESGGGLVQAGGSLRLSCAPSGRTSSTYTMGWFRQAPGKEREFVAAISWTGTPYYADSVKGRFTISRDNAKNTVYLQMNSLKPEDTAVYYCAAARPGLFIFVSDYARTAKYDYWGQGTQVTVPP
notes: llama nanobody CA9865; Expressed from the vector pBXNPHM3 (Addgene 110099); also called CA9865; source: E. coli MC1061, purified (Ni-NTA, 3C cleavage, Strep-Tactin XT); not shown: His-tagged MBP, N-terminal, cleaved
